Test results reported in ChEMBL document CHEMBL1155623, “New skeletal sesquiterpenoids, caprariolides A-D, from Capraria biflora and their insecticidal activity” (2000).

Test system: Cylas formicarius
Experiment: Insecticidal activity in adult Cylas formicarius elegantulus measured per insect after 24 hrs
Assay type: functional

In order of rising LD50:
1. C=CCc1ccc(O)c(OC)c1 [EUGENOL]  0.605 mg
2. C[C@@H]1CC(c2ccoc2)=C[C@]2(C1)C[C@H](C)C(=O)O2 [CAPRARIOLIDE A]  0.902 mg
3. C[C@@H]1CC(c2ccoc2)=C[C@]2(C1)C[C@@H](C)C(=O)O2 [CAPRARIOLIDE B]  1.102 mg
